Experimental data: patent US10426813B2, “Method to enhance endurance” (KYOWA HAKKO BIO CO., LTD., priority 2009, dated 2019)
“Also recorded” adds a separate entry of the source. Peptide text beside a SMILES is read from it.

Key:
[1] = Time to exhaustion test on cycle ergometer at 75% VO2 max after dehydration and rehydration; format: in vivo, human
Source text: (§1) On four of the five subsequent visits to the HPL, subjects dehydrated to 2.5% of their baseline body mass. On the occasion that a dehydration protocol was not employed, subjects reported to the HPL in a euhydrated state to provide a baseline blood draw and perform the exercise protocol. This trial (T1) provided baseline performance data for how subjects performed in optimal conditions without hydration stress. All performance comparisons were made to this trial. In one trial (T2) subjects achieved their goal weight (−2.5% of baseline body weight) and rested in a recumbent position for 45 minutes before commencing the exercise session. In the subsequent three trials subjects reached their goal weight (−2.5% of baseline body mass) and then rehydrated to −1.5% of their baseline body mass by drinking either water (T3) or two different doses (T4 and T5) of the alanyl-glutamine (ALA-GLU) supplement (0.05 g·kg^−1 and 0.2 g·kg^−1, respectively). During the hydration trials (T3-T5), the exercise protocol began 45 minutes following reaching their goal weight. During this time frame, subjects were rehydrated. The order of the trials was randomly determined.
On the night before testing (5 p.m.), subjects reported to the HPL for weighing and urine specific gravity measures to ascertain that subjects were euhydrated. Subjects were then instructed to not consume any food or water until the next day when they reported back to the HPL (7 a.m.). […] On the morning of trials T2-T5, subjects reporting to the HPL were weighed and began the active dehydration protocol to achieve the desired weight loss. The active dehydration protocol required subjects to walk on a motorized treadmill at 3.4 mi·h^−1 and at a 2% incline. Subjects were fully clothed in a training suit (long cotton heavy weight fleece sweat pants and top). Nude body weight, heart rate, and rating of perceived exertion were monitored at 20-minute increments. […] At the end of the dehydration period, a urine specimen and blood samples were obtained. Dehydration was verified by measuring urine specific gravity and both urine and plasma osmolality. The time necessary to reach the goal body mass (−2.5% weight loss) was 62.5±44.2 min.
(§2) Subjects consumed the supplement or placebo (water) following the dehydration protocol as part of their rehydration to −1.5% of their baseline body mass. The L-alanyl-L-glutamine supplement (0.2 g·kg^−1 or 0.05 g·kg^−1) (Kyowa Hakko USA, New York, N.Y.) was mixed with water and was indistinguishable in appearance and taste from the placebo.
After dehydration and rehydration (except during trial T2), subjects began the exercise protocol. Subjects exercised at a workload that elicited 75% of their VO2 max on a cycle ergometer. Subjects were encouraged to give their best effort during each trial, and were verbally encouraged throughout each exercise trial. Oxygen consumption, minute ventilation, respiratory exchange ratio, and heart rate were measured continuously. Heart rate and blood pressure were recorded before and at the conclusion of exercise. Time to exhaustion was determined as the time that the subject could no longer maintain the workload and/or reach volitional exhaustion.

[2] = Plasma glutamine concentration during hydration stress and endurance exercise; format: in vivo, human
Source text: as §1, §2
A baseline (BL) blood draw occurred during T1. No other blood was drawn during that trial. The BL blood sample was drawn following a 15-min equilibration period prior to exercise. […]
Hemoglobin was analyzed in triplicate from whole blood using the cyanmethemoglobin method (Sigma Diagnostics, St. Louis, Mo.). Hematocrit was analyzed in triplicate from whole blood via microcentrifugation (IEC micro-MB centrifuge, Needham, Mass.) and microcapillary technique. Plasma volume shifts following the workout were calculated using the formula of Dill & Costill (1974). […]

- Plasma glutamine concentration ([2]; T4, 0.05 g/kg, compared to T3 (water only)): No differences
- AUC of plasma glutamine concentration ([2]; T5, 0.2 g·kg^−1, compared to the other experimental trials): significantly higher
Structure (SMILES): C[C@H](N)C(=O)N[C@@H](CCC(N)=O)C(=O)O [alanyl-glutamine, L-alanyl-L-glutamine] (H-Ala-Gln-OH)
- Δ performance: time to exhaustion (difference to T1) ([1]; T4, 0.05 g·kg^−1, compared to T2 (dehydrated, no rehydration)): significantly greater times to exhaustion
- trend of inhibiting the decrease in duration of exercise endurance ([1]; T4, 0.05 g·kg^−1, compared to T3 (water only)): even more pronounced
- Δ performance: time to exhaustion (difference to T1) ([1]; T5, 0.2 g·kg^−1, compared to T2 (dehydrated, no rehydration)): significantly greater times to exhaustion
- trend of inhibiting the decrease in duration of exercise endurance ([1]; T5, 0.2 g·kg^−1, compared to T3 (water only)): even more pronounced
- effect on endurance ([1]; overall conclusion, independent of increases in plasma glutamine concentration): endurance enhancing effect
- Plasma glutamine concentration ([2]; T5, 0.2 g·kg^−1, at RHY and IP, compared to T2-T4): significantly higher; also recorded: significantly increased
